Eight compounds from patent publication EP0118120A2, “1,4-Dihydropyridine compound” (priority 1983, dated 1984) can be followed below.

Bounds are passed on as bounds.

A word on the LD50: it is the dose expected to kill half of the subjects tested.

The subject of series [1] is SLC-Wistar male rats. The experiment in a line: Acute toxicity, oral LD50 in rats (Example 29). Format: in vivo. The following applies: male rats 5 weeks old, 100 to 125 g, observed for one week, 10080 min. The text has this: (§1) Acute toxicity of the compounds according to the present invention
Series [2] deals with liver disorder induced by carbon tetrachloride. Briefly: Effect on liver disorder induced by carbon tetrachloride in rats, serum GOT, GPT, AlP, bilirubin (Example 26). Format: in vivo, SLC-Wistar male rats. The following applies: rats 9 weeks old. On the procedure: (§2) Effect of the compounds according to the present invention on liver disorder induced by carbon tetrachloride
(§3) The effects of the sample compounds to be tested on hepatic disorder were evaluated by determining the levels of GOT, GPT, AlP, and bilirubin, which are known as an indicator of hepatic disorder, in serum, after administering carbon tetrachloride and the sample compounds to SLC-Wistar male rats (9 weeks old and body weight of 210 to 250 g in Tables 1, 3, and 4, and 10 weeks old and body weight of 230 to 260 g in Table 2) as follows.
(§4) Five rats were used in each test group. The sample compound (i.e., each compound listed below) was suspended at a concentration of 40 mg/ml in a 0.1% aqueous solution of Tween-80 (i.e., nonionic surfactant available from Atlas Powder Co., Ltd.). The resultant suspension was orally administered at a dose of 200 mg/kg each at 25 hours and 1 hour before the administration of carbon tetrachloride, except for the control group. For the control group to which only carbon tetrachloride was administered in the evaluation test, a 0.1% aqueous Tween-80 was orally administered at a dose of 5 ml/kg in the same manner.
(§5) Carbon tetrachloride was intraperiotoneally administered as a 10% olive oil solution at a dose of 5 ml/kg (0.5 ml/kg in terms of CC14) one hour after the final administration of the sample compound. For the control (normal) group, olive oil was intraperitoneally administered in the same manner at a dose of 5 ml/kg.
(§6) Blood samples were collected from the carotid artery under pentobarbital anesthesia, 24 hours after the administration of carbon tetrachloride. The rats were fasted for 18 to 22 hours before collecting the blood samples.
(§7) The determination of GOT and GPT in serum was carried out according to a UV method, the determination of AlP was carried cut according to Bessy-Lowry method, and the determination of bilirubin was carried out according to a diazo method.

The nature of series [3]: Acute toxicity, oral LD50 in rats (Example 29). The series is classed as in vivo. Conditions: rat, in vivo, male rats 5 weeks old, 100 to 125 g, observed for one week.
Description: as §1

The nature of series [4]: Acute toxicity, oral LD50 in rats (Example 28). Conditions: rat, in vivo, male rats 5 weeks old, 130 to 150 g, observed for one week.
Description: as §1

The test system of series [5] is liver disorder induced by carbon tetrachloride. Briefly: Effect on liver disorder induced by carbon tetrachloride in rats, repeat with 8 weeks old rats (Example 27). The series is classed as in vivo, SLC-Wistar male rats. The following applies: Table 5, serum 24 hours after CCl4, 200 mg/kg orally x2, rats 8 weeks old; for GOT: 170 to 210 g, CCl4 only 27875 ± 3628, normal 78 ± 3; for Bilirubin: CCl4 only 0.55 ± 0.16, normal 0.10 ± 0.00; for AlP: CCl4 only 41.3 ± 2.5, normal 25.7 ± 0.4; for GPT: CCl4 only 12984 ± 1465, normal 30 ± 3. On the procedure:
as §3, §4, §5, §6, §7, §2
The evaluation tests of Example 26 were repeated except that SLC-Wistar male rats (8 weeks old and body weight of 170 to 210 g) were used.

The mark [6] stands for this setting: Table 3, serum 24 hours after CCl4, 200 mg/kg orally x2, CCl4 only 0.38 ± 0.06, normal 0.22 ± 0.04.
The mark [7] stands for this setting: Table 3, serum 24 hours after CCl4, 200 mg/kg orally x2, CCl4 only 34.4 ± 2.6, normal 27.0 ± 0.5.
Setting [8] is: Table 3, serum 24 hours after CCl4, 200 mg/kg orally x2, CCl4 only 9188 ± 1815, normal 30 ± 2.
[9] abbreviates: Table 3, serum 24 hours after CCl4, 200 mg/kg orally x2, CCl4 only 13189 ± 2205, normal 81 ± 3.
Setting [10] is: Table 4, serum 24 hours after CCl4, 200 mg/kg orally x2, CCl4 only 0.38 ± 0.04, normal 0.10 ± 0.00.
[11] abbreviates: Table 4, serum 24 hours after CCl4, 200 mg/kg orally x2, CCl4 only 35.0 ± 2.0, normal 24.4 ± 0.7.
The mark [12] stands for this setting: Table 4, serum 24 hours after CCl4, 200 mg/kg orally x2, CCl4 only 10523 ± 2313, normal 31 ± 3.
Where [13] appears, read: Table 4, serum 24 hours after CCl4, 200 mg/kg orally x2, CCl4 only 17704 ± 4140, normal 76 ± 4.

For “3,5-dicyano-4-[2-(5,6-dihydro-p--dioxinyl)]-2,6-dimethyl-1,4-dihvdropyridine [Sample Compound A]”, the LD50 entry in series [1] was “more than 1000 mg/kg”. For the same compound, the GOT in series [2] (Table 1, serum 24 hours after CCl4 0.5 ml/kg i.p., compound 200 mg/kg orally 25 hours and 1 hour before CCl4, CCl4 only 17327 ± 2336, normal 76 ± 1) was 3874 ± 792 K.U. Besides, the Bilirubin in series [2] (Table 1, serum 24 hours after CCl4, 200 mg/kg orally x2, CCl4 only 0.62 ± 0.30, normal 0.10 ± 0.00) worked out at 0.24 ± 0.02 mg/dL. The same compound showed an AlP in series [2] (Table 1, serum 24 hours after CCl4, 200 mg/kg orally x2, CCl4 only 35.5 ± 2.5, normal 23.6 ± 0.4) of 31.4 ± 0.9 K-AU. Moreover, in series [2] (Table 1, serum 24 hours after CCl4, 200 mg/kg orally x2, CCl4 only 10496 ± 1221, normal 31 ± 2), the GPT is 2380 ± 472 K.U.

For `COCOC(=O)C1=C(C)NC(C)=C(C(=O)OCOC)C1C1=COCCO1` [Sample Compound F, bis(methoxymethyl) 4-[2-(5,6-dihydro-p-dioxinyl)]-2,6-dimethyl-1,4-dihydrcpyridine-3,5-dicarboxylate], the LD50 at 168 h in series [3] is > 2000 mg/kg. Also, in series [2] (setting [6]), the Bilirubin amounted to 0.22 ± 0.05 mg/dL. Moreover, in series [2] (setting [7]), the AlP turned out to be 26.4 ± 1.0 K-AU. Besides, the GPT in series [2] (setting [8]) is reported as 274 ± 99 K.U. The compound also registered a GOT in series [2] (setting [9]) of 432 ± 107 K.U.

For `C#CCOC(=O)C1=C(C)NC(C)=C(C(=O)OCC#C)C1C1=COCCO1` [Sample Compound I, dipropargyl 4-[2-(5,6-dihydro-p-dioxinyl)]-2,6-dimethyl-l,4-dihydropyridine-3,5-dicarboxylate], in series [4], the LD50 at 168 h was > 2000 mg/kg. The Bilirubin in series [2] (setting [10]) is 0.22 ± 0.02 mg/dL. Further, the AlP in series [2] (setting [11]) was found to be 27.6 ± 1.8 K-AU. Moreover, in series [2] (setting [12]), the GPT is reported as 2110 ± 228 K.U. Further, the GOT in series [2] (setting [13]) amounted to 2925 ± 380 K.U.

`COCCOC(=O)C1=C(C)NC(C)=C(C(=O)OCCOC)C1C1=COCCO1` [Sample Compound J, bis (2-methoxyethyl) 4-[2-(5,6-dihydro-p-dioxinyl)]-2,6-dimethyl-1,4-dihydropyridine-3,5-dicarboxylate]: the 50% lethal dose (LD50) at 168 h in series [4] is > 1000 mg/kg. Besides, the Bilirubin in series [2] (setting [10]) was 0.18 ± 0.03 mg/dL. For the same compound, in series [2] (setting [11]), the AlP came out at 27.4 ± 2.6 K-AU. For the same compound, the GPT in series [2] (setting [12]) was determined as 626 ± 179 K.U. Further, the GOT in series [2] (setting [13]) is 807 ± 211 K.U.

On to `CC(=O)C1=C(C)NC(C)=C(C(C)=O)C1C1=COCCO1` [Sample Compound L, 3,5-diacetyl-4-[2-(5,6-dihydro-p-dioxinyl)]-2,6-dimethyl-1,4-dihydropyridine], for which the LD50 at 168 h in series [4] is > 1000 mg/kg. The compound further returned a Bilirubin in series [2] (setting [10]) of 0.22 ± 0.02 mg/dL. For the same compound, in series [2] (setting [11]), the AlP is 34.2 ± 1.5 K-AU. The compound further yielded a GPT in series [2] (setting [12]) of 285 ± 96 K.U. This compound also registered a GOT in series [2] (setting [13]) of 429 ± 113 K.U.

As to `CC(=O)C1=C(C)NC(C)=C(C(C)=O)C1C1=C(C)OC(C)CO1` (stereo not shown) [Sample Compound O, 3,5-diacetyl-2,6-dimethyl-4-2-(3,5-dimethyl-5,6-dihydro-p-dioxinyl) -1,4-dihydro pyridine], the LD50 at 168 h in series [3] was > 2000 mg/kg. Besides, the Bilirubin in series [2] (setting [6]) came to 0.26 ± 0.02 mg/dL. The compound further had an AlP in series [2] (setting [7]) of 37.2 ± 1.6 K-AU. Besides, the GPT in series [2] (setting [8]) turned out to be 410 ± 64 K.U. The GOT in series [2] (setting [9]) was determined as 565 ± 98 K.U.

With `COCN1C(C)=C(C(C)=O)C(C2=COCCO2)C(C(C)=O)=C1C` [Sample Compound R, 3,5-diacetyl-4-[2-(5,6-dihydro-p-dioxinyl)]-1-methoxymethyl-2,6-dimethyl-1,4-dihydropyridine], in series [3], the LD50 at 168 h is > 1500 mg/kg. Also, in series [5], the GOT worked out at 425 ± 124 K.U, the Bilirubin amounted to 0.16 ± 0.02 mg/dL, the AlP was 31.4 ± 1.6 K-AU and the GPT worked out at 260 ± 98 K.U.

`COCC1=C(C2C(C(C)=O)=C(C)NC(C)=C2C(C)=O)OCCO1` [Sample Compound V, 3,5-diacetyl-4-2-(3-methoxy-methvl-5,6-dihydro-p-dioxinyl) -2,6-dimethyl-l,4-dihydropyridine]: in series [3], the LD50 at 168 h is > 2000 mg/kg. In series [5], the GOT amounted to 2036 ± 677 K.U, the Bilirubin turned out to be 0.15 ± 0.03 mg/dL, the AlP is on record as 35.6 ± 1.4 K-AU and the GPT was 1251 ± 414 K.U.
